The test system of assay [1] is C57BL/10 IL-10-deficient mice. Kind of assay: IL-10-deficient mouse colitis model, disease activity index (DAI). Particulars: for effect on established colitis (disease activity index): n=12 per group. In kind it is in vivo. Here is the method:
The DAI was calculated by scoring 1 point for the appearance of each of the following: ruffled fur, occult fecal blood as determined on a Hemoccult Sensa® card (Smith Kline Diagnostics, San Jose, Calif.), rectal prolapse <1 mm, and soft stool. The mice were scored an additional point for diarrhea or severe rectal prolapse >1 mm. The mean with standard error bars of the DAI are plotted for pretreatment and then at the end of each week of treatment (n=12 per group).
The preferred, and widely used, model for testing is the IL-10-deficient (KO) mouse (on a C57BL/10 strain background). As described in the Examples, colonies of C57BL/10 IL-10 KO mice are bred and used. These mice consistently develop colitis at 10-12 weeks of age when transported from the ultra-barrier facility to conventional housing. These mice are used to test the effect of a candidate anti-angiogenic agent on pathogenesis and treatment of established disease.
Colonies of C57BL/10 IL-10-deficient mice were routinely bred at the Case Western Reserve University Animal Research Center for studies of early and late colitis. These mice consistently develop colitis at 10-12 weeks of age when transported from the ultra-barrier facility to conventional housing. These mice were used to test the effect of ATN 161 (Ac-PHSCN—NH2) on both the development and treatment of established disease.
ATN-161 had no effect on the development of colitis in this model when treatment was initiated at the time that the mice were moved to conventional housing. […] A scrambled peptide version of ATN-161 (ATN-163; Ac-HSPNC—NH2) was used as a control and had no effect on established colitis in this model. ATN-163 and vehicle controls were indistinguishable in these studies (data not shown).

For the next assay, the system named is IL-12(p40). Kind of assay: IL-12 in supernatants of cultured colon fragments from treated mice (ELISA). In kind it is in vivo, mouse. Particulars: 48 hours culture; versus ATN-163 treated controls. Here is the method: (§1) FIGS. 3A and 3B are graphs showing that colon fragments from ATN-161 treated mice expressed lower levels of IL-12 and IL-6. Fragments of colon from mice treated with ATN-161 or ATN-163 were cultured in RPMI media +2% fetal bovine serum and 2.5% PSF (antibiotic-antimycotic). After 48 hours, supernatants were harvested and kept frozen at −80 C. FIG. 3A: IL-12(p40) was analyzed using an ELISA in which plates had been coated with the monoclonal antibody C15.6. FIG. 3B: IL-6 was analyzed using a commercially available ELISA kit specific for mouse IL-6 (R&D Systems, Minneapolis, Minn.).
(§2) Biopsies were also cultured in vitro and the supernatants analyzed for IL-6 and IL-12 expression as previously described (Spencer D M et al., 2002, Gastroenterology 122:94-105). IL-6 and IL-12 are inflammatory cytokines that have been correlated with the pathogenesis of colitis (Mahida Y R, 2000, Inflamm Bowel Dis 6:21-33).
Background: An ELISA detects its analyte on a solid surface through an enzyme-linked reagent.

The subject of assay [2] is C57BL/10 IL-10-deficient mice. Kind of assay: Histologic grading for colitis of colon at Week 6. In kind it is in vivo, mouse. Particulars: end of Week 6; ATN-161 versus ATN-163 treated group. Here is the method: FIG. 2 is a graph summarizing the histologic grading for colitis at Week 6. Grading of intestinal inflammation was determined in a blinded fashion by three readers: no inflammation (0); modest numbers of infiltrating cells in the lamina propria (1); infiltration of mononuclear cells leading to separation of crypts and mild mucosal hyperplasia (2); massive infiltration with inflammatory cells accompanied by disrupted mucosal architecture, loss of goblet cells, and marked mucosal hyperplasia (3); all of the above plus crypt abscesses or ulceration (4).
Animals were euthanized at the end of Week 6 and the colon removed for histologic analysis.

The test system of another assay is cell adhesion. Particulars: cited from earlier work.
Assay [3] has as its system human colon cancer cells (HT29). Particulars: HT29 do not express integrin α5β1; cited from earlier work.
For assay [4], the system named is C57BL/10 IL-10-deficient mice. Kind of assay: Microvessel density in colon sections by anti-CD31 immunostaining. Type of assay: in vivo, mouse. Particulars: zinc fixed colon sections. As to the method: FIG. 4 is a graph showing an analysis of microvessel density using anti-CD31 immunostaining. Immunostaining was performed using the mouse CD31 specific mAb MEC 13.3 (Becton-Dickinson, San Diego, Calif.). Morphometric analysis was carried out using an international consensus for the quantification of angiogenesis (Vermeulen P B et al., Eur J Cancer 32A:2474-84; Eur J Cancer 38:1564-15). In particular stained colonic sections were scanned at low power (40×) to detect the most vascularized area, after which at least 5 microphotographs at 200× magnification were taken in the mucosa and in the submucosa. The number of vessels/field (mean vascular density) was performed using Image Pro Plus Software (Media Cybernetics, Silver Spring, Md.).
Microvessel density as a measure of angiogenesis was determined in zinc fixed colon sections.

Another assay has as its system IL-12. The assay can be described thus: IL-12 production in vitro by LPMC extracts and splenocytes. Particulars: lamina propria mononuclear cell (LPMC) extracts and splenocytes. Type of assay: cell-based. Here is the method:
(§3) The effect of ATN-161 on IL-6 and IL-12 expression was also evaluated in vitro using lamina propria mononuclear cell (LPMC) extracts and splenocytes.

In another assay the test system is tumor angiogenesis. Particulars: cited from earlier work.
The test system of assay [5] is IL-6. The assay can be described thus: IL-6 in supernatants of cultured colon fragments from treated mice (ELISA). Type of assay: in vivo, mouse. Particulars: 48 hours culture; versus ATN-163 treated controls. Here is the method:
as §1, §2

Assay [6] has as its system IL-6. Kind of assay: IL-6 production in vitro by LPMC extracts and splenocytes. Particulars: lamina propria mononuclear cell (LPMC) extracts and splenocytes. In kind it is cell-based. Here is the method:
as §3

“Also recorded” adds a separate entry of the source.

Take “Ac-HSPNC—NH2 (Ac-HSPNC-NH2) [ATN-163, reference compound]”: the “effect on established colitis (disease activity index)” value in assay [1] (mice with established disease) is reported as “no effect”.

As for Ac-PHSCN—NH2 (Ac-PHSCN-NH2) [ATN-161], the “IL-12 level in colon fragment organ culture” value with IL-12(p40) is recorded as “significantly lower levels”. Besides, in assay [1] (mice with established disease), the “treatment time after which the reduction of colitis was observed” value is “approximately four” and the “effect on established colitis (disease activity index)” value is given as “consistently reduced colitis; also recorded: reduces established colitis”. Moreover, the “effect on the development of colitis” value in assay [1] (treatment initiated at the time the mice were moved to conventional housing) was “no effect”. Also, the histologic score result in assay [2] is given as “significantly lower”. For the same substance, in the assay on cell adhesion, the “effect on cell adhesion” value is “does not affect cell adhesion”. In [3], the “in vivo growth of xenografted HT29 cells” value is on record as “significantly reduced”. Further, in [4], the “reduction of microvessels versus ATN-163 treated controls” value was “approximately 40%”. In the assay on IL-12, the “effect on IL-12 production” value is “no effect”. For the same substance, the “effect on efficacy of 5-fluorouracil” value in the assay with tumor angiogenesis (combination with 5-fluorouracil) is given as “enhance the efficacy”. In addition, in the assay with tumor angiogenesis (in vivo), the “effect on tumor angiogenesis” value was “inhibited tumor angiogenesis”. Besides, in the assay with IL-6 [5], the “IL-6 level in colon fragment organ culture” value is “significantly lower levels”. Besides, the “effect on IL-6 production” value in the assay on IL-6 [6] is on record as “no effect”.

The record behind these values is patent US20090312243A1, “TREATMENT OF INFLAMMATORY BOWEL DISEASE (IBD) WITH ANTI-ANGIOGENIC COMPOUNDS” (priority 2005, published 2009).
